Common to all, as to assay type: biochemical
The target of assay [1] is KRAS G12S binding to BRAF RBD (Homo sapiens (Human), UniProt P01116+P62937, G12S). Nature of the assay: Ras-Raf disruption/FRET/MOA assay, KRAS G12S. In a few lines: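 TR-FRET ratio drop relative to DMSO wells marks disruption of the Ras–RAF complex, reported as IC50. Compounds promote a Ras(nucleotide)–cyclophilin A ternary complex that blocks BRAF RBD binding; dosing was 10 points, 3-fold, top 30 μM final, 3 h at 25° C before detection.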
KRAS G12S binding to BRAF RBD, sequence (P01116 other isoform, or with tags, fused parts or gaps G12S): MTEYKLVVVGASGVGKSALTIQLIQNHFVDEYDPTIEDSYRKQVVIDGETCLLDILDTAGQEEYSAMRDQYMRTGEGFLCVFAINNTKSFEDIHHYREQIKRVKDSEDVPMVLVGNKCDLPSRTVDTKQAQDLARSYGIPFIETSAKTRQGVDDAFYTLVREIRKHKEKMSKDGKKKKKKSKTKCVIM
KRAS G12S binding to BRAF RBD, sequence (P62937 whole entry): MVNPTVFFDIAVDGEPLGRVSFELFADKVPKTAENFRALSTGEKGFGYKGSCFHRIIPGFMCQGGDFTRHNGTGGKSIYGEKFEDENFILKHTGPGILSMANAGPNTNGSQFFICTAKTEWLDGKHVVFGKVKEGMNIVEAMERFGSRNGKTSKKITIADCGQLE

The target of assay [2] is KRAS G12V binding to BRAF RBD (Homo sapiens (Human), UniProt P01116+P62937, G12V). Nature of the assay: Ras-Raf disruption/FRET/MOA assay, KRAS G12V. An excerpt:
(§1) Note—The following protocol describes a procedure for monitoring disruption of K-Ras G12C(GMP-PNP) binding to BRAF^RBD by a compound of the invention. This protocol may also be executed substituting other Ras proteins or nucleotides.
(§2) The purpose of this biochemical assay was to measure the ability of test compounds to facilitate ternary complex formation between a nucleotide-loaded K-Ras isoform and Cyclophilin A; the resulting ternary complex disrupts binding to a BRAF^RBD construct, inhibiting K-Ras signaling through a RAF effector. Data is reported as IC50 values.
(§3) Compound was present in plate wells as a 10-point 3-fold dilution series starting at a final concentration of 30 μM. After incubation at 25° C. for 3 hours, a mixture of Anti-His Eu—W1024 and anti-GST allophycocyanin was then added to assay sample wells at final concentrations of 10 nM and 50 nM, respectively, and the reaction incubated for an additional 1.5 hours. […] Compounds that facilitate disruption of a K-Ras: RAF complex were identified as those eliciting a decrease in the TR-FRET ratio relative to DMSO control wells.

In assay [3] the target is KRAS G13C binding to BRAF RBD (Homo sapiens (Human), UniProt P01116+P62937, G13C). Nature of the assay: Ras-Raf disruption/FRET/MOA assay, KRAS G13C.
KRAS G13C binding to BRAF RBD, sequence (P01116 other isoform, or with tags, fused parts or gaps G13C): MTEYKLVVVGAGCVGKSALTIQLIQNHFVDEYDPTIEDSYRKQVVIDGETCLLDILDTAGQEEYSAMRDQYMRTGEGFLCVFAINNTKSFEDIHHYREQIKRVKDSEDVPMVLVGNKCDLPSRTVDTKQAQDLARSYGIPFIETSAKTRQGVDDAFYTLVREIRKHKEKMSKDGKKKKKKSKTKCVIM
KRAS G13C binding to BRAF RBD, sequence (P62937 whole entry, the tested form may be a part): as the sequence (P62937 whole entry) above
Excerpt: Disruption of B-Raf Ras-binding Domain (BRAF^RBD) Interaction with K-Ras by Compounds of the Invention (also called a FRET assay or an MOA assay)
as §1, §2
as §3, with “In assay buffer containing 25 mM HEPES pH 7.3, 0.002% Tween20, 0.1% BSA, 100 mM NaCl and 5 mM MgCl2, tagless Cyclophilin A, His6-K-Ras-GMPPNP, and GST-BRAF^RBD were combined in a 384-well assay plate at final concentrations of 25 μM, 12.5 nM and 50 nM, respectively. Compound was” for “Compound was”

For assay [4], the target named is KRAS WT binding to BRAF RBD (Homo sapiens (Human), UniProt P01116+P62937). Nature of the assay: Ras-Raf disruption/FRET/MOA assay, KRAS WT. An outline of the steps: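 Compounds (top 30 μM, 3-fold, 10 points) promote Cyclophilin A (25 μM) ternary complex with His6-Ras-GMPPNP (12.5 nM), disrupting GST-BRAF RBD (50 nM) binding; 3 h, 25°C, 25 mM HEPES pH 7.3, 100 mM NaCl, 5 mM MgCl2. Detection reagents (Eu anti-His 10 nM, APC anti-GST 50 nM) added for 1.5 h; IC50 reported.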
KRAS WT binding to BRAF RBD, sequence (P01116 other isoform, or with tags, fused parts or gaps): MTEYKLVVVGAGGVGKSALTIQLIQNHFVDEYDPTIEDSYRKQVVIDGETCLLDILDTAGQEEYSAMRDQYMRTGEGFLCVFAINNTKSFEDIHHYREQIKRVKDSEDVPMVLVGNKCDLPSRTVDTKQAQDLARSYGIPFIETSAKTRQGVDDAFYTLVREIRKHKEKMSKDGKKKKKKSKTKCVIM
KRAS WT binding to BRAF RBD, sequence (P62937 whole entry): as the sequence (P62937 whole entry) above

In general, IC50 refers to the concentration that gives 50% inhibition.

The structures appear in SMILES notation. Like-named read-outs stand apart in the source and are kept apart here.

KRAS G12V binding to BRAF RBD, sequence (P01116 other isoform, or with tags, fused parts or gaps G12V): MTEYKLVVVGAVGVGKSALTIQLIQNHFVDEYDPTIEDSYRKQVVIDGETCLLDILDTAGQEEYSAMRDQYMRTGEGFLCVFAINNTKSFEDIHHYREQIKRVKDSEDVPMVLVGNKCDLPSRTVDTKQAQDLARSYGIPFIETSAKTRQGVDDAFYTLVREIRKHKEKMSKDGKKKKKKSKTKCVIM
KRAS G12V binding to BRAF RBD, sequence (P62937 whole entry): as the sequence (P62937 whole entry) above

As for `CCn1c(-c2cccnc2[C@H](C)OC)c2c3cc(ccc31)-c1cc(O)cc(c1)C[C@H](NC(=O)C1CCC3C1C3(F)F)C(=O)N1CCC[C@H](N1)C(=O)OCC(C)(C)C2` (stereo partly shown) [Compound A181], the IC50 in assay [1] was in the range of 10 to 100 nM.

As for `CCn1c(-c2cccnc2[C@H](C)OC)c2c3cc(ccc31)-c1csc(n1)C[C@H](NC(=O)[C@H](C(C)C)N(C)C(=O)C1COC1)C(=O)N1CCC[C@H](N1)C(=O)OCC(C)(C)C2` [Compound A245], the IC50 in assay [2] is 10 to 100 nM.

Take `CCn1c(-c2cccnc2[C@H](C)OC)c2c3cc(ccc31)-c1cc(O)cc(c1)C[C@H](NC(=O)[C@H](C(C)C)N(C)C(=O)C1CC(=O)N(C3CC3)C1)C(=O)N1CCC[C@H](N1)C(=O)OCC(C)(C)C2` (stereo partly shown) [Compound A252]: in assay [3], the IC50 was less than 10 nM.

For `CCn1c(-c2cnccc2COC)c2c3cc(ccc31)-c1cc(O)cc(c1)C[C@H](NC(=O)[C@H](C(C)C)N(C)C(=O)N1CCNCC1)C(=O)N1CCC[C@H](N1)C(=O)OCC(C)(C)C2` [Compound A255], the values for the concentration for half-maximal inhibition (IC50) in assay [3] and in assay [1] were less than 10 nM and 10 to 100 nM, respectively.

As to `CCn1c(-c2cccnc2[C@H](C)OC)c2c3cc(ccc31)-c1cc(O)cc(c1)C[C@H](NC(=O)[C@@H](C(C)C)N(C)C(C)=O)C(=O)N1CCC[C@H](N1)C(=O)OCC(C)(C)C2` [Compound A256], the IC50 in assay [4] and in assay [1] was 10 to 100 nM each time.

In the case of `CCn1c(-c2cccnc2[C@H](C)OC)c2c3cc(ccc31)-c1csc(n1)C[C@H](NC(=O)[C@H](C(C)C)N(C)C(=O)N1C[C@@H](C)N(C)C[C@@H]1C)C(=O)N1CCC[C@H](N1)C(=O)OCC(C)(C)C2` [Compound A292], the IC50 in assay [3] is less than 10 nM; in assay [2] (read-out: KRAS G12V FRET IC50), 10 to 100 nM; in assay [1], 10 to 100 nM.

For `CCn1c(-c2cccnc2[C@H](C)OC)c2c3cc(ccc31)-c1csc(n1)C[C@H](NC(=O)[C@H](C(C)C)N(C)C(=O)N1CC(N3CCC3)C1)C(=O)N1CCC[C@H](N1)C(=O)OCC(C)(C)C2` [Compound A295], the IC50 in assay [4], in assay [2] (read-out: KRAS G12V FRET IC50) and in assay [1] was 10 to 100 nM throughout.

As to `CCn1c(-c2cccnc2[C@H](C)OC)c2c3cc(ccc31)-c1csc(n1)C[C@H](NC(=O)[C@H](C(C)C)N(C)C(=O)N1C[C@H](C)N(C)C[C@H]1C)C(=O)N1CCC[C@H](N1)C(=O)OCC(C)(C)C2` [Compound A300], the IC50 in assay [4], in assay [2] (read-out: KRAS G12V FRET IC50) and in assay [1] was 10 to 100 nM throughout.

For `CCn1c(-c2cccnc2[C@H](C)OC)c2c3cc(ccc31)-c1csc(n1)C[C@H](NC(=O)[C@H](C(C)C)N(C)C(=O)N1CC(N3CCOCC3)C1)C(=O)N1CCC[C@H](N1)C(=O)OCC(C)(C)C2` [Compound A338], the IC50 in assay [3] is less than 10 nM; in assay [4], 10 to 100 nM; in assay [2] (read-out: KRAS G12V FRET IC50), 10 to 100 nM; in assay [1] it was 10 to 100 nM.

For the compound `CCn1c(-c2cccnc2[C@H](C)OC)c2c3cc(ccc31)-c1csc(n1)C[C@H](NC(=O)C1CC1)C(=O)N1CCC[C@H](N1)C(=O)OCC(C)(C)C2` [Compound A367], the IC50 in assay [4] and in assay [1] was 10 to 100 nM each time.

As for `CCn1c(-c2cccnc2[C@H](C)OC)c2c3cc(ccc31)-c1cc(O)cc(c1)C[C@H](NC(=O)[C@H](C(C)C)N(C)C(=O)[C@H]1CCN(C(=O)[C@@H](C)N(C)C)C1)C(=O)N1CCC[C@H](N1)C(=O)OCC(C)(C)C2` [Compound A386], in assay [4], the IC50 is 10 to 100 nM.

Regarding `CCn1c(-c2cccnc2[C@H](C)OC)c2c3cc(ccc31)-c1cc(O)cc(c1)C[C@H](NC(=O)[C@H](C(C)C)N(C)C(=O)C1CNCCNC1)C(=O)N1CCC[C@H](N1)C(=O)OCC(C)(C)C2` [Compound A432], the IC50 in assay [4] lay in the range of 10 to 100 nM.

Turning to `CCn1c(-c2cccnc2[C@H](C)OC)c2c3cc(ccc31)-c1csc(n1)C[C@H](NC(=O)[C@H](C(C)C)N(C)C(=O)N1CCO[C@@]3(CCN(C)C3)C1)C(=O)N1CCC[C@H](N1)C(=O)OCC(C)(C)C2` [Compound A436], the IC50 in assay [4] lay within 10 to 100 nM.

On to `CCn1c(-c2cccnc2[C@H](C)OC)c2c3cc(ccc31)-c1csc(n1)C[C@H](NC(=O)[C@H](C(C)C)N(C)C(=O)N1CC[C@]3(CCNC3=O)C1)C(=O)N1CCC[C@H](N1)C(=O)OCC(C)(C)C2` [Compound A479], for which the IC50 in assay [4], in assay [2] (read-out: KRAS G12V FRET IC50) and in assay [1] was 10 to 100 nM in each case.

Regarding `CCn1c(-c2cccnc2[C@H](C)OC)c2c3cc(ccc31)-c1csc(n1)C[C@H](NC(=O)[C@H](C(C)C)N(C)C(=O)N1CCC[C@H](N(C)C)CC1)C(=O)N1CCC[C@H](N1)C(=O)OCC(C)(C)C2` [Compound A493], the IC50 in assay [4], in assay [2] (read-out: KRAS G12V FRET IC50) and in assay [1] was 10 to 100 nM in each case.

Turning to `CCn1c(-c2cccnc2[C@H](C)OC)c2c3cc(ccc31)-c1csc(n1)C[C@H](NC(=O)[C@H](C(C)C)N(C)C(=O)N(C)C1(C)COC1)C(=O)N1CCC[C@H](N1)C(=O)OCC(C)(C)C2` [Compound A527], the IC50 in assay [4], in assay [2] (read-out: KRAS G12V FRET IC50) and in assay [1] was 10 to 100 nM each time.

Turning to `CCn1c(-c2cccnc2[C@H](C)OC)c2c3cc(ccc31)-c1csc(n1)C[C@H](NC(=O)[C@H](C(C)C)N(C)C(=O)N1CCN3C(=O)CN(C)C[C@H]3C1)C(=O)N1CCC[C@H](N1)C(=O)OCC(C)(C)C2` [Compound A537], the IC50 in assay [4], in assay [2] (read-out: KRAS G12V FRET IC50) and in assay [1] was 10 to 100 nM each time.

As to `CCn1c(-c2cccnc2[C@H](C)OC)c2c3cc(ccc31)-c1csc(n1)C[C@H](NC(=O)[C@H](C(C)C)N(C)C(=O)N1CCN(C(=O)[C@@H]3CCCN3C)CC1)C(=O)N1CCC[C@H](N1)C(=O)OCC(C)(C)C2` [Compound A596], in assay [1], the IC50 was 10 to 100 nM.

In the case of `CCn1c(-c2cccnc2[C@H](C)OC)c2c3cc(ccc31)-c1csc(n1)[C@@H](OC)[C@H](NC(=O)[C@H](C(C)C)N(C)C(=O)N(C)C)C(=O)N1CCC[C@H](N1)C(=O)OCC(C)(C)C2` [Compound A598, (2S)—N-((6^3S,3S,4S,Z)-1^1-ethyl-3-methoxy-1^2-(2-((S)-1-methoxyethyl)pyridin-3-yl)-10,10-dimethyl-5,7-dioxo-6^1,6^2,6^3,6^4,6^5,6^6-hexahydro-1^1H-8-oxa-2 (4,2)-thiazola-1 (5,3)-indola-6 (1,3)-pyridazinacycloundecaphane-4-yl)-3-methyl-2-(1,3,3-trimethylureido) butanamide], the IC50 in assay [4] and in assay [1] was 10 to 100 nM throughout.

With `CCn1c(-c2cccnc2[C@H](C)OC)c2c3cc(ccc31)-c1csc(n1)C[C@H](NC(=O)[C@H](C(C)C)N(C)C(=O)N1CC3(CCN(C)C3)C1)C(=O)N1CCC[C@H](N1)C(=O)OCC(C)(C)C2` [Compound A602], the IC50 in assay [4], in assay [2] (read-out: KRAS G12V FRET IC50) and in assay [1] was 10 to 100 nM each time.

Source of the values: US20250195521A1 (Revolution Medicines, Inc., priority 2020, published 2025).
